Assay results reported in paper PMC6831561, “Pharmacological and Behavioral Effects of the Synthetic Cannabinoid AKB48 in Rats” (Frontiers in Neuroscience, 2019).

Columns and labels:
Assay type in all cases: in vivo
[1] = test system: rats; test: Startle and pre-pulse inhibition
Method: As previously reported ([Marti et al., 2019]), rats were tested for acoustic startle reactivity in startle chambers (Ugo Basile apparatus, Milan, Italy) consisting of a sound-attenuated, lighted, and ventilated enclosure holding a transparent non-restrictive Perspex® cage (modified version for rats 200 × 90 × 80 mm). A loudspeaker mounted laterally by the holder produced all acoustic stimuli. Peaks and amplitudes of the startle response were detected by a load cell. At the onset of the startling stimulus, 300 ms readings were recorded, and the wave amplitude evoked by the movement of the rat startle response was measured. Acoustic startle test sessions consisted of startle trials (pulse-alone) and pre-pulse trials (pre-pulse + pulse). The pulse-alone trial consisted of a 40 ms 120 dB pulse. Pre-pulse + pulse trial sequences consisted of a 20 ms acoustic pre-pulse, 80 ms delay, and then a 40 ms, 120 dB startle pulse (100 ms onset–onset). There was an average of 15 s (range = from 9 to 21 s) between the trials. Each startle session began with a 10 min acclimation period with a 65 dB broadband white noise that was present continuously throughout the session. The test session contained 40 trials composed by pulse-alone and pre-pulse + pulse trials (with three different pre-pulses of 68, 75, and 85 dB) presented in a pseudorandomized order. Rats were placed in the startle chambers 5 min after treatment with AKB48. The entire startle/PPI test lasted 20 min. The pre-pulse inhibition (PPI) was expressed as the percentage decrease in the amplitude of the startle reactivity caused by the presentation of the pre-pulse. AKB48 (0.1–3 mg/kg i.p.) was administered intraperitoneally, and startle/PPI responses were recorded 15 min (including the 10 min acclimation period) after drug injections.

[2] = test system: rats; test: Tail pinch test (acute mechanical nociception)
Method: Acute mechanical nociception was evaluated using the tail pinch tests (modified by [Vigolo et al., 2015]). A special rigid probe connected to a digital dynamometer (ZP-50N, IMADA, Japan) was gently placed on the tail (in the distal portion), and progressive pressure was applied. When the rat flicked its tail, the pressure was stopped, and the digital instrument saved the maximum peak of weight supported (g/force). A cut-off (500 g/force) was set to avoid tissue damage. The test was repeated three times, and the final value was calculated with the average of three obtained scores. Acute mechanical nociception was measured at 0, 20, 40, 70, 140, and 195 min post-injection.

[3] = test system: rats; test: Overall tactile response (vibrissae, pinna, corneal reflexes)
Method: Tactile responses were verified through vibrissae, pinna, and corneal reflexes ([Marti et al., 2019]), and data were expressed as the sum of these parameters. The vibrissae reflex was evaluated by touching the vibrissae (right and left) with a thin hypodermic needle once per side, giving a value of 1 if there was a reflex (turning of the head to the side of touch or vibrissae movement) or 0 if not present (overall score 2). Evaluation of the vibrissae reflex was measured at 0, 10, 30, 60, 120, and 180 min post-injection. The pinna reflex was assessed by touching the pavilions (left and right) with a thin hypodermic needle, the interior pavilions first. This test was repeated twice per side, giving a value of 1 if there was a reflex and 0 if not present (overall score 4). Evaluation of the pinna reflex was measured at 0, 10, 30, 60, 120, and 180 min post-injection. The corneal reflex was assessed by gently touching the cornea with a thin hypodermic needle and evaluating the response, assigning a value of 1 if the rat moved only its head, 2 if it only closed its eyelid, and 3 if it closed its lid and moved its head. The procedure was conducted bilaterally (overall score 6) and was measured at 0, 10, 30, 60, 120, and 180 min post-injection.

[4] = test system: rats; test: Conditioned place preference paradigm
Description: The CPP chambers consisted of two equally sized compartments interconnected by a guillotine door, adopting a classical conditioning procedure that has been successfully used to assess the rewarding properties of several drugs of abuse. The compartments are differentiated by both visual and tactile cues: the color of the walls in each compartment (white or black) and the texture of the floors (wooden flat or metal wired). The box was placed in a dimly illuminated room. Place conditioning morning sessions ran from 8:30 a.m. to noon, while afternoon sessions ran from 2:30 p.m. to 6 p.m.
According to the conditioned place preference paradigm, on day 0 (pre-test), rats freely explored the two compartments for 15 min, and the time spent in each compartment during the exploratory period was measured. Rats that spent 60–70% of the total time on one side were excluded from the experiment. We used an unbiased-like protocol and assigned the drug-paired compartment randomly. On days 1–3 (conditioning phase), male Sprague-Dawley rats (n = 24) were divided into three groups (n = 8 per group) and given injections of AKB48 (0.1 or 0.5 mg/kg) or vehicle twice daily (9:00 a.m. to 7:00 p.m.) and confined to one compartment for 30 min for 3 days. During these conditioning trials, the animals developed an association between the subjective state produced by the drug and the environmental cues present in the compartment in which they received the drug. On day 4 (test day), rats were allowed to explore the two compartments freely for 15 min, and the time spent in each compartment during the exploratory period was measured.
To evaluate if the aversive effect obtained with the higher dose of AKB48 (0.5 mg/kg) was mediated by activation of CB1 cannabinoid receptors, male Sprague-Dawley rats (n = 32) were divided into four groups (n = 8 per group). Group 1 received AKB48 vehicle in both compartments and served as a control. […] CB1 antagonist was injected 20 min before the agonist AKB48, which was given 10 min prior to the test.

[5] = test system: rats; test: Bar test (catalepsy)
Method: In the bar test, the rat’s forelimbs were placed on a bar made of plastic (height 6 cm). The time spent on the bar was measured (immobility cut-off: 20 sec), and akinesia was calculated as the total time spent on the bar after three consecutive trials (total maximal time of catalepsy: 60 s; [De Luca et al., 2015]; [Canazza et al., 2016]). The bar test was performed at 0, 20, 40, 70, 140, and 195 min post-injection.

[6] = test system: rats; test: Core and surface body temperature
Method: To better assess the effects of the ligands on thermoregulation, we measured both changes in the core (rectal) and surface (ventral fur) temperature. The core temperature was evaluated by a probe (1 mm diameter) that was gently inserted, after lubrication with liquid Vaseline, into the rectum of the rat (to about 2 cm) and left in position until the stabilization of the temperature (about 10 sec; [De Luca et al., 2015]; [Vigolo et al., 2015]). The probe was connected to a Cole Parmer digital thermometer, model 8402. The surface temperature was measured by a Microlife FR 1DZ1 digital infrared thermometer, placed 1 cm from the surface of the abdomen of the rat ([Vigolo et al., 2015]). Core and surface body temperatures were measured at 0, 15, 35, 65, 125, and 190 min.

[7] = AKB48 0.1–3 mg/kg i.p., 15 min after treatment
[8] = AM251 1 mg/kg i.p. before AKB48 3 mg/kg
[9] = AM251 1 mg/kg i.p. before AKB48 3 mg/kg i.p.

In the case of `CCCCCn1nc(C(=O)NC23CC4CC(CC(C4)C2)C3)c2ccccc21` [AKB48, N-(1-adamantyl)-1-pentyl-1H-indazole-3-carboxamide], the “PPI at 68 dB of pre-pulse intensity” value [1, 7] is reported as “inhibited”, the “PPI at 75 dB of pre-pulse intensity” value [1, 7] is reported as “inhibited” and the inhibition at 3 mg/kg ([1]; Rattus norvegicus, 0.25 h, AKB48 3 mg/kg, 15 min after administration, read-out: inhibition of startle amplitude) is reported as ~50%. The “threshold to acute mechanical pain stimulus (tail pinch test)” value ([2]; AKB48 0.1–3 mg/kg i.p.) was “slightly increased”, the “reduction of overall tactile response” value ([3]; AKB48, only at the highest dose (3 mg/kg i.p.)) was ~23% and the “persistence of the reduction of tactile response” value ([3]; AKB48 highest dose (3 mg/kg i.p.)) was “up to 60 min”. The conditioned place preference ([4]; AKB48 0.1 mg/kg) was “ineffective”, the conditioned place preference ([4]; AKB48 0.5 mg/kg) was “significant aversive effect” and the “time spent on the bar” value ([5]; AKB48 0.1–3 mg/kg i.p.) was “slightly increased”. For the same compound, the “time at which the core temperature effect was evident” value ([6]; AKB48 3 mg/kg i.p.) was 65 min, the surface body temperature ([6]; AKB48 0.1–3 mg/kg i.p.) was “did not affect” and the core body temperature ([6]; AKB48, only at 3 mg/kg i.p.) was “reduced”.
With `Cc1c(C(=O)NN2CCCCC2)nn(-c2ccc(Cl)cc2Cl)c1-c1ccc(I)cc1` [AM251, 1-(2,4-dichlorophenyl)-5-(4-iodophenyl)-4-methyl-N-(piperidin-1-yl)-1H-pyrazole-3-carboxamide, reference compound] the “inhibitory effect of AKB48 on PPI at 68 dB, with AM251” value ([1]; AM251 1 mg/kg i.p. + AKB48) was “prevented”, the “inhibitory effect of AKB48 on PPI at 75 dB, with AM251” value ([1]; AM251 1 mg/kg i.p. + AKB48) was “prevented” and the “inhibitory effect of AKB48 on startle, with AM251” value ([1]; AM251 1 mg/kg i.p. + AKB48) was “prevented”. The “startle response, AM251 alone” value ([1]; AM251 1 mg/kg i.p. alone) was “did not modify”, the “threshold to acute mechanical pain stimuli, AM251 alone” value ([2]; AM251 1 mg/kg i.p. alone) was “did not alter” and the “AKB48 effect on mechanical pain threshold, after AM251 pre-treatment” value [2, 8] was “prevented”. The “response to AM251 alone in the tactile response section” value ([3]; AM251 1 mg/kg i.p. alone (data not shown)) was “did not alter”, the “inhibition of overall tactile response induced by AKB48, after AM251 pre-treatment” value [3, 9] was “prevented” and the “aversive effect of AKB48 on place preference, with AM251” value ([4]; AM251 1 mg/kg i.p. + AKB48 0.5 mg/kg) was “blocked”. The “catalepsy, AM251 alone” value ([5]; AM251 1 mg/kg i.p. alone) was “did not induce catalepsy”, the “AKB48 effect on time spent on the bar, after AM251 pre-treatment” value [5, 8] was “prevented” and the “response to AM251 alone in the body temperature section” value ([6]; AM251 1 mg/kg i.p. alone) was “did not alter”. The “hypothermia induced by AKB48, after AM251 pre-treatment” value [6, 9] was “prevented”.
